Data published in publication PMC2907420 (Journal of pharmaceutical and biomedical analysis, 2010).

How the values were obtained:
glycated HSA (gHSA2) [1] = molecular target: T1, glycated HSA (gHSA2) (Homo sapiens, UniProt P02768); settings: gHSA2 column
glycated HSA [2] = molecular target: T2, glycated HSA (Homo sapiens, UniProt P02768); settings: pH 7.4, 37°C; versus reported Ka of 1.1 × 10^4 M^−1 for normal HSA
glycated HSA (gHSA1) [3] = molecular target: T3, glycated HSA (gHSA1) (Homo sapiens, UniProt P02768); assay: biochemical
T3 sequence (P02768 25-609): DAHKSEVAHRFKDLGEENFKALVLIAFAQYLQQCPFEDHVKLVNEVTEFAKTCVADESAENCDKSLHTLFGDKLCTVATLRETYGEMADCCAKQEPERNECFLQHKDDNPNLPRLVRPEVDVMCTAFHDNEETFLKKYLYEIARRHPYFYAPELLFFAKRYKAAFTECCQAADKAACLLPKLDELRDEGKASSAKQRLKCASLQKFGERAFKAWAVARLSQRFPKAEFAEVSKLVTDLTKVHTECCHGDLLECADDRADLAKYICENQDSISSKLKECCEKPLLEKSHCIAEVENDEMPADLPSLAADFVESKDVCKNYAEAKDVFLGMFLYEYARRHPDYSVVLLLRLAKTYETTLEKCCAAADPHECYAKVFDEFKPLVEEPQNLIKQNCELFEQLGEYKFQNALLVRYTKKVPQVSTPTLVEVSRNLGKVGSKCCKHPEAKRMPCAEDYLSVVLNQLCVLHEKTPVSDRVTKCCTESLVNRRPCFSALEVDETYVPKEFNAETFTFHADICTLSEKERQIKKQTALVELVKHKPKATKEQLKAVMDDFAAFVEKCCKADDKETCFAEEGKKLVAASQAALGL

normal HSA = normal HSA columns, 37°C; cited from earlier work
glycated HSA (gHSA3) [4] = molecular target: T4, glycated HSA (gHSA3) (Homo sapiens, UniProt P02768); settings: gHSA3 column
T4 sequence (P02768 25-609): as above

[5] = depending on storage conditions; cited from earlier work
glycated HSA (gHSA3) [6] = molecular target: T4, glycated HSA (gHSA3); assay: biochemical
glycated HSA (gHSA2) [7] = molecular target: T1, glycated HSA (gHSA2); assay: biochemical
glycated HSA [8] = molecular target: T2, glycated HSA; settings: 4°C, comparable glycation conditions; cited from earlier work
glycated HSA (gHSA1) [9] = molecular target: T3, glycated HSA (gHSA1); settings: gHSA1 column
[10] = binding capacity normalized for protein content
[11] = moles of active binding sites, Eqn. 3

T1 sequence (P02768 25-609): as above
T2 sequence (P02768 25-609): as above

For `N[C@@H](Cc1c[nH]c2ccccc12)C(=O)O` [L-Tryptophan, L-tryptophan], the “Specific Activity” value (glycated HSA (gHSA2) [1]; [10]) was 0.30 (± 0.05) mol/mol HSA, the mL (glycated HSA (gHSA2) [1]; [11]) was 6.7 (± 1.8) × 10^−9 mol and the “increase in binding affinity (Ka) with glycated HSA versus normal HSA” value (glycated HSA [2]) was 4.7–5.8 fold. The Kd (glycated HSA (gHSA1) [3]) was 19.2 µM, the association equilibrium constant (normal HSA) was 11000 M⁻¹ and the “Specific Activity” value (glycated HSA (gHSA3) [4]; [10]) was 0.31 (± 0.04) mol/mol HSA. The mL (glycated HSA (gHSA3) [4]; [11]) was 5.8 (± 0.6) × 10^−9 mol, the “time over which solutions decrease in stability” value [5] was 2 to 9 days and the Kd (glycated HSA (gHSA3) [6]) was 17.5 µM. The Kd (glycated HSA (gHSA2) [7]) was 15.6 µM, the “decrease in affinity, glycated HSA versus HSA” value (glycated HSA [8]) was ≤ 0.6 fold and the “Specific Activity” value (glycated HSA (gHSA1) [9]; [10]) was 0.36 (± 0.08) mol/mol HSA. For the same molecule, the mL (glycated HSA (gHSA1) [9]; [11]) was 5.0 (± 0.9) × 10^−9 mol.
